From publication PMC12015462, “Prioritization of novel anti-infective stilbene derivatives by combining metabolomic data organization and a stringent 3R-infection model in a knowledge graph” (RSC Advances, 2025)
Read-outs that look alike come from different tables or passages of the source.

Assays:
Format in all cases: cell-based
Mycobacterium marinum [1] = test: Infection assay: intracellular M. marinum growth (luminescence) in D. discoideum; details: for activity at 0.411523 µM / activity at 1.23457 µM / activity at 3.7037 µM / activity at 11.1111 µM / activity at 33.3333 µM / activity at 100 µM: 72 h; for activity at 0.411523 µM: conc 0.411522634 uM; for activity at 1.23457 µM: conc 1.234567901 uM; for activity at 3.7037 µM: conc 3.703703704 uM; for activity at 11.1111 µM: conc 11.11111111 uM; for activity at 33.3333 µM: conc 33.33333333 uM; for activity at 100 µM: conc 100 uM; for IC50: interpolated between the two concentrations closest to residual growth 0.5, top concentration 100 μM
Source text: (§1) Since fractions were not weighed individually, the injection mass was used to calculate an average mass per fraction and thus a nominal mass concentration.

Dictyostelium discoideum = test: Infection assay: growth of the host amoeba D. discoideum (fluorescence) in infection; details: for activity at 0.411523 µM / activity at 1.23457 µM / activity at 3.7037 µM / activity at 11.1111 µM / activity at 33.3333 µM / activity at 100 µM: 72 h; for IC50: read-out: IC50 Dd in infection (μM)
Source text: as §1

Mycobacterium marinum [2] = test: Anti-biotic assay: M. marinum growth in broth (luminescence); details: for activity at 0.411523 µM / activity at 1.23457 µM / activity at 3.7037 µM / activity at 11.1111 µM / activity at 33.3333 µM / activity at 100 µM: 72 h; for IC50: read-out: IC50 Mm in broth (μM)
Description: as §1
Plating bacteria and compounds or fractions was performed analogously to the infection assay described above. Bacteria growth was monitored with the Agilent BioTek H1 plate reader by recording luminescence at 32 °C.
The prepared plates were sealed and stored at 4 °C overnight. On the day of the experiment, nine 10 cm Petri dishes were infected (as described before) and grouped into three pools.

[3] = vehicle control set at 1, read-out: mean normalized residual growth, Mm in infection
[4] = vehicle control set at 1, read-out: median normalized residual growth, Mm in infection
[5] = read-out: mean normalized residual growth, Dd in infection
[6] = read-out: median normalized residual growth, Dd in infection
[7] = read-out: mean (normalised M. marinum growth, Mm in broth)
[8] = read-out: median (normalised M. marinum growth, Mm in broth)

| SMILES | activity at 0.411523 µM (Mycobacterium marinum [1]; [3]) [%] | activity at 0.411523 µM (Mycobacterium marinum [1]; [4]) [%] | activity at 1.23457 µM (Mycobacterium marinum [1]; [3]) [%] | activity at 1.23457 µM (Mycobacterium marinum [1]; [4]) [%] | activity at 3.7037 µM (Mycobacterium marinum [1]; [3]) [%] | activity at 3.7037 µM (Mycobacterium marinum [1]; [4]) [%] | activity at 11.1111 µM (Mycobacterium marinum [1]; [3]) [%] | activity at 11.1111 µM (Mycobacterium marinum [1]; [4]) [%] | activity at 33.3333 µM (Mycobacterium marinum [1]; [3]) [%] | activity at 33.3333 µM (Mycobacterium marinum [1]; [4]) [%] | activity at 100 µM (Mycobacterium marinum [1]; [3]) [%] | activity at 100 µM (Mycobacterium marinum [1]; [4]) [%] | IC50 (Mycobacterium marinum [1]) [µM] | activity at 0.411523 µM (Dictyostelium discoideum; [5]) [%] | activity at 1.23457 µM (Dictyostelium discoideum; [5]) [%] | activity at 3.7037 µM (Dictyostelium discoideum; [5]) [%] | activity at 11.1111 µM (Dictyostelium discoideum; [5]) [%] | activity at 33.3333 µM (Dictyostelium discoideum; [5]) [%] | activity at 100 µM (Dictyostelium discoideum; [5]) [%] | activity at 0.411523 µM (Dictyostelium discoideum; [6]) [%] | further results |
| --- | --- | --- | --- | --- | --- | --- | --- | --- | --- | --- | --- | --- | --- | --- | --- | --- | --- | --- | --- | --- | --- |
| Oc1ccc(/C=C/c2cc(O)c3c(c2)O[C@@H](c2ccc(O)cc2)[C@@H]3c2cc(O)c3c(c2)O[C@H](c2ccc(O)cc2)[C@H]3c2cc(O)cc(O)c2)cc1 [Compound 6, (−)-Gnetin E] | 165 | 154 | 202 | 184 | 196 | 172 | 169 | 155 | 98.2 | 95.4 | 46.3 | 49.1 | 66.7 | 119 | 116 | 112 | 114 | 95.3 | 35.6 | 93.6 | activity at 1.23457 µM (Dictyostelium discoideum; [6]): 89.2%; activity at 3.7037 µM (Dictyostelium discoideum; [6]): 92%; activity at 11.1111 µM (Dictyostelium discoideum; [6]): 88.5%; activity at 33.3333 µM (Dictyostelium discoideum; [6]): 86.1%; activity at 100 µM (Dictyostelium discoideum; [6]): 56.8%; IC50 (Dictyostelium discoideum): > 100 µM; activity at 0.411523 µM (Mycobacterium marinum [2]; [7]): 134%; activity at 1.23457 µM (Mycobacterium marinum [2]; [7]): 114%; activity at 3.7037 µM (Mycobacterium marinum [2]; [7]): 113%; activity at 11.1111 µM (Mycobacterium marinum [2]; [7]): 114%; activity at 33.3333 µM (Mycobacterium marinum [2]; [7]): 118%; activity at 100 µM (Mycobacterium marinum [2]; [7]): 110%; activity at 0.411523 µM (Mycobacterium marinum [2]; [8]): 135%; activity at 1.23457 µM (Mycobacterium marinum [2]; [8]): 109%; activity at 3.7037 µM (Mycobacterium marinum [2]; [8]): 114%; activity at 11.1111 µM (Mycobacterium marinum [2]; [8]): 114%; activity at 33.3333 µM (Mycobacterium marinum [2]; [8]): 119%; activity at 100 µM (Mycobacterium marinum [2]; [8]): 110%; IC50 (Mycobacterium marinum [2]): > 100 µM |
| Oc1ccc(/C=C/c2cc(O)c3c(c2)O[C@H](c2ccc(O)cc2)[C@H]3c2cc(O)c3c(c2)O[C@H](c2ccc(O)cc2)[C@H]3c2cc(O)c3c(c2)O[C@H](c2ccc(O)cc2O)[C@H]3c2cc(O)cc(O)c2)cc1 [Compound 7, Macrostachyol A] | 139 | 130 | 158 | 153 | 163 | 154 | 151 | 157 | 80.7 | 76 | 33.4 | 37.5 | 66.7 | 143 | 146 | 119 | 111 | 63 | -92.9 | 91.3 | activity at 1.23457 µM (Dictyostelium discoideum; [6]): 90.3%; activity at 3.7037 µM (Dictyostelium discoideum; [6]): 92%; activity at 11.1111 µM (Dictyostelium discoideum; [6]): 91%; activity at 33.3333 µM (Dictyostelium discoideum; [6]): 82.1%; activity at 100 µM (Dictyostelium discoideum; [6]): 3.73%; IC50 (Dictyostelium discoideum): 66.7 µM; activity at 0.411523 µM (Mycobacterium marinum [2]; [7]): 118%; activity at 1.23457 µM (Mycobacterium marinum [2]; [7]): 118%; activity at 3.7037 µM (Mycobacterium marinum [2]; [7]): 114%; activity at 11.1111 µM (Mycobacterium marinum [2]; [7]): 106%; activity at 33.3333 µM (Mycobacterium marinum [2]; [7]): 112%; activity at 100 µM (Mycobacterium marinum [2]; [7]): 107%; activity at 0.411523 µM (Mycobacterium marinum [2]; [8]): 117%; activity at 1.23457 µM (Mycobacterium marinum [2]; [8]): 123%; activity at 3.7037 µM (Mycobacterium marinum [2]; [8]): 116%; activity at 11.1111 µM (Mycobacterium marinum [2]; [8]): 105%; activity at 33.3333 µM (Mycobacterium marinum [2]; [8]): 114%; activity at 100 µM (Mycobacterium marinum [2]; [8]): 109%; IC50 (Mycobacterium marinum [2]): > 100 µM |
| Oc1ccc(/C=C/c2cc(O)c3c(c2)O[C@H](c2ccc(O)cc2)[C@H]3c2cc(O)c3c(c2)O[C@H](c2ccc(O)cc2)[C@H]3c2cc(O)c3c(c2)O[C@H](c2ccc(O)cc2)[C@H]3c2cc(O)cc(O)c2)cc1 [Compound 8, Gnemonol B] | 132 | 146 | 105 | 94.6 | 127 | 144 | 124 | 128 | 112 | 117 | 61 | 45.3 | 66.7 | 159 | 139 | 139 | 120 | 114 | 51.3 | 92.7 | activity at 1.23457 µM (Dictyostelium discoideum; [6]): 85.7%; activity at 3.7037 µM (Dictyostelium discoideum; [6]): 92.1%; activity at 11.1111 µM (Dictyostelium discoideum; [6]): 88.6%; activity at 33.3333 µM (Dictyostelium discoideum; [6]): 81.5%; activity at 100 µM (Dictyostelium discoideum; [6]): 33.4%; IC50 (Dictyostelium discoideum): 66.7 µM; activity at 0.411523 µM (Mycobacterium marinum [2]; [7]): 118%; activity at 1.23457 µM (Mycobacterium marinum [2]; [7]): 111%; activity at 3.7037 µM (Mycobacterium marinum [2]; [7]): 113%; activity at 11.1111 µM (Mycobacterium marinum [2]; [7]): 119%; activity at 33.3333 µM (Mycobacterium marinum [2]; [7]): 117%; activity at 100 µM (Mycobacterium marinum [2]; [7]): 114%; activity at 0.411523 µM (Mycobacterium marinum [2]; [8]): 125%; activity at 1.23457 µM (Mycobacterium marinum [2]; [8]): 116%; activity at 3.7037 µM (Mycobacterium marinum [2]; [8]): 117%; activity at 11.1111 µM (Mycobacterium marinum [2]; [8]): 115%; activity at 33.3333 µM (Mycobacterium marinum [2]; [8]): 120%; activity at 100 µM (Mycobacterium marinum [2]; [8]): 115%; IC50 (Mycobacterium marinum [2]): > 100 µM |
| Oc1ccc([C@@H]2Oc3cc(O)ccc3[C@H]3[C@H](c4cc(O)cc(O)c4)c4c(O)cc(O)cc4[C@H]32)cc1 [Compound 9, (−)-Gnemontanin G] | 59 | 69.2 | 82.5 | 85.7 | 76.2 | 74.2 | 58.4 | 59.5 | 65.6 | 72.4 | 71.9 | 75.7 | > 100 | 58.2 | 70.8 | 60.4 | 64.9 | 72.5 | 103 | 95.8 | activity at 1.23457 µM (Dictyostelium discoideum; [6]): 97.6%; activity at 3.7037 µM (Dictyostelium discoideum; [6]): 99.6%; activity at 11.1111 µM (Dictyostelium discoideum; [6]): 93.8%; activity at 33.3333 µM (Dictyostelium discoideum; [6]): 91.4%; activity at 100 µM (Dictyostelium discoideum; [6]): 91.6%; IC50 (Dictyostelium discoideum): > 100 µM; activity at 0.411523 µM (Mycobacterium marinum [2]; [7]): 87.4%; activity at 1.23457 µM (Mycobacterium marinum [2]; [7]): 93.9%; activity at 3.7037 µM (Mycobacterium marinum [2]; [7]): 92.7%; activity at 11.1111 µM (Mycobacterium marinum [2]; [7]): 81.3%; activity at 33.3333 µM (Mycobacterium marinum [2]; [7]): 89.2%; activity at 100 µM (Mycobacterium marinum [2]; [7]): 92.6%; activity at 0.411523 µM (Mycobacterium marinum [2]; [8]): 86.6%; activity at 1.23457 µM (Mycobacterium marinum [2]; [8]): 96.7%; activity at 3.7037 µM (Mycobacterium marinum [2]; [8]): 92.3%; activity at 11.1111 µM (Mycobacterium marinum [2]; [8]): 78.6%; activity at 33.3333 µM (Mycobacterium marinum [2]; [8]): 87.9%; activity at 100 µM (Mycobacterium marinum [2]; [8]): 91.7% |
